Molecular target: T1, human M1 receptor (hCHRM1) (Homo sapiens, UniProt P11229)
T1 construct: expressed in transfected cells
T1 sequence (P11229 1-460): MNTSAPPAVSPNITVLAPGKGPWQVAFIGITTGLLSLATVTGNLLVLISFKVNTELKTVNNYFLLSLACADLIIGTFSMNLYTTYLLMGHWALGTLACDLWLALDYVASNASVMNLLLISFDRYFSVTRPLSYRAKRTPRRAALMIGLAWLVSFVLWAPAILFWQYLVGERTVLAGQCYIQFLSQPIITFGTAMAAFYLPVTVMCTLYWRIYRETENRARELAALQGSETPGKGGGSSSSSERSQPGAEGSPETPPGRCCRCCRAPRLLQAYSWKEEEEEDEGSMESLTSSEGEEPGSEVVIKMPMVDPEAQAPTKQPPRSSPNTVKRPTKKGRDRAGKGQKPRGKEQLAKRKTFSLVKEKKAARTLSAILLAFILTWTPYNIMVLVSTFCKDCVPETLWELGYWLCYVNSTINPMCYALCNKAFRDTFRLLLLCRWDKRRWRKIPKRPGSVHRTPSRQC
Test: Measurement of M1 receptor positive allosteric modulator (M1PAM) activity, Ca2+ fluorescence by FLIPRtetra (Experimental Example 1)
Type: cell-based
Conditions: for activity (%) at 10 μM: 10 μM test compound, 100% = acetylcholine 1 μM, 0% = DMSO; for EC50: inflection point of concentration-dependent curve, in presence of acetylcholine at EC20 (0.8-1.0 nM), CHO-K1 cells expressing hCHRM1, read-out: IP value
Method: Measurement of M1 Receptor Positive Allosteric Modulator (M1PAM) Activity
The activity of a test compound in the presence of acetylcholine at EC20 concentration (final concentration 0.8-1.0 nM), which affords an action corresponding to about 20% of the maximum activity, was measured as PAM activity. The method is as follows. CHO-K1 cells stably expressing a human M1 receptor (hCHRM1) were plated on a 384-well black clear bottom plate (BD Falcon) at 5,000 cells/well, and cultured in an incubator at 37° C., 5% CO2 for 1 day. The medium in the cell plate was removed, and a dye solution (prepared by adding Recording medium (DOJINDO LABORATORIES) to a final concentration of 1×concentration, Fluo-4 AM (DOJINDO LABORATORIES) to a final concentration of 2.5 μg/mL, Pluronic F127 (DOJINDO LABORATORIES) to a final concentration of 0.08%, and probenecid (DOJINDO LABORATORIES) to a final concentration of 1.25 mM to assay buffer (HBSS (Invitrogen), 20 mM HEPES (Invitrogen), 0.1% BSA (Wako Pure Chemical Industries, Ltd.))) was added at 30 μL/well. The cells were left standing in the incubator at 37° C., 5% CO2 for 30 min, and further left standing at room temperature for 30 min. A test compound prepared by diluting with assay buffer containing 3.2-4.0 nM acetylcholine was added at 10 μL/well, and the fluorescence was measured by FLIPRtetra (Molecular Devices) for 1 min every 1 second. With the definition that the amount of change in the fluorescence on addition of acetylcholine (final concentration 1 μM) is 100% and that on addition of DMSO instead of a test compound is 0%, the activity (%) of the test compound was calculated, and the inflection point in the concentration-dependent curve of the test compound was calculated as IP values.

activity (%) at 10 μM	EC50	Compound
99%	35 nM	Cc1cc(Cc2ccc(-n3cccn3)cc2)cc2c1OCN([C@H]1CCCC[C@@H]1O)C2=O (relative stereo) [Example 65, 3-(trans-2-hydroxycyclohexyl)-8-methyl-6-(4-(1H-pyrazol-1-yl)benzyl)-2,3-dihydro-4H-1,3-benzoxazin-4-one]
109%	5.8 nM	Cc1cc2c(cc1Cc1ccc(-n3cccn3)cc1)C(=O)N([C@H]1CCC[C@@H]1O)CO2 [Example 35, 3-((1S,2S)-2-hydroxycyclopentyl)-7-methyl-6-(4-(1H-pyrazol-1-yl)benzyl)-2,3-dihydro-4H-1,3-benzoxazin-4-one]
100%	57 nM	O=C1c2cc(CN3CCCC(F)(F)C3)c3ccccc3c2OCN1[C@H]1CCC[C@@H]1O [Example 72, 6-((3,3-difluoropiperidin-yl)methyl)-3-((1S,2S)-2-hydroxycyclopentyl)-2,3-dihydro-4H-naphtho[2,1-e][1,3]oxazin-4-one]
105%	9.6 nM	Cc1c(Cc2ccc(Cl)nc2)cc2c(c1C)OCN([C@H]1CCC[C@@H]1O)C2=O [Example 8, 6-((6-chloropyridin-3-yl)methyl)-3-((1S,2S)-2-hydroxycyclopentyl)-7,8-dimethyl-2,3-dihydro-4H-1,3-benzoxazin-4-one]
120%	8.6 nM	Cc1cc2c(cc1Cc1ccc(-n3cccn3)cc1)C(=O)N([C@H]1COCC[C@@H]1O)CO2 [Example 50, 1,5-anhydro-2,4-dideoxy-2-(7-methyl-4-oxo-6-(4-(1H-pyrazol-1-yl)benzyl)-2H-1,3-benzoxazin-3(4H)-yl)-L-threo-pentitol]
98%	46 nM	Cc1cc2c(cc1Cc1ccc(C#N)cc1)C(=O)N([C@H]1CCC[C@@H]1O)CO2 [Example 67, 4-((3-((1S,2S)-2-hydroxycyclopentyl)-7-methyl-4-oxo-3,4-dihydro-2H-1,3-benzoxazin-6-yl)methyl)benzonitrile]
115%	230 nM	Cn1cc(-c2ccc(Cc3ccc4c(c3)C(=O)N(c3ccccc3F)CO4)cn2)cn1 [Example 88, 3-(2-fluorophenyl)-6-((6-(1-methyl-1H-pyrazol-4-yl)pyridin-3-yl)methyl)-2,3-dihydro-4H-1,3-benzoxazin-4-one]
95%	16 nM	O=C1c2cc(CN3CCC(F)(F)CC3)c3ccccc3c2OCN1[C@H]1CCC[C@@H]1O [Example 21, 6-((4,4-difluoropiperidin-1-yl)methyl)-3-((1S,2S)-2-hydroxycyclopentyl)-2,3-dihydro-4H-naphtho[2,1-e][1,3]oxazin-4-one]
89%	15 nM	Cc1c(Cc2ccc(C#N)cc2)cc2c(c1F)OCN([C@H]1CCC[C@@H]1O)C2=O [Example 12, 4-((8-fluoro-3-((1S,2S)-2-hydroxycyclopentyl)-7-methyl-4-oxo-3,4-dihydro-2H-1,3-benzoxazin-6-yl)methyl)benzonitrile]
92%	4.8 nM	Cc1c(Cc2ccc(-c3cnn(C)c3)nc2)cc2c(c1Cl)OCN(CC1CCCO1)C2=O (stereo not drawn) [Example 45, 8-chloro-7-methyl-6-((6-(1-methyl-1H-pyrazol-4-yl)pyridin-3-yl)methyl)-3-(tetrahydrofuran-2-ylmethyl)-2,3-dihydro-4H-1,3-benzoxazin-4-one]
89%	3.8 nM	O=C1c2cc(Cc3ccc(Cl)nc3)c3ccccc3c2OCN1[C@H]1COCC[C@@H]1O [Example 125, 1,5-anhydro-2-(6-((6-chloropyridin-3-yl)methyl)-4-oxo-2H-naphtho[2,1-e][1,3]oxazin-3(4H)-yl)-2,4-dideoxy-L-threo-pentitol]
85%	24 nM	Cc1ccc(Cc2cc3c(c(F)c2C)OCN([C@H]2CCC[C@@H]2O)C3=O)cn1 [Example 20, 8-fluoro-3-((1S,2S)-2-hydroxycyclopentyl)-7-methyl-6-((6-methylpyridin-3-yl)methyl)-2,3-dihydro-4H-1,3-benzoxazin-4-one]
